The values that follow are results of earlier work, collected in PubChem BioAssay AID1259409 (Chemical Carcinogenesis Research Information System (CCRIS), 2018).

In the data set the test system is rodent chemically induced tumor inhibition, incidence and multiplicity. Put plainly: CCRIS tumor inhibitor studies.

On to `c1cc2ccc3ccc4ccc5cccc6c(c1)c2c3c4c56`, for which the “tumour outcome (control, treated, inhibition, significance)” value (Carcinogen: BENZO[A]PYRENE, 50-32-8, Dose [Inhibitor]: 7 UG IN 0.1 ML ACETONE 3/WK ADMINISTERED SIMULTANEOUSLY WITH CARCINOGEN FOR DURATION OF STUDY (STUDY DURATION: 368 D), Route [Inhibitor]: DERMAL, Species: MOUSE, Strain/Sex: ICR/FEMALE, Target Tissue: Type of Lesion: SKIN: PAPILLOMA, Dose [Carcinogen]: 5 UG IN 0.1 ML ACETONE 3/WK FOR DURATION OF STUDY, Promoter: NONE USED) is recorded as 14/50 (28%), 19/50 (38%), -36%, not calculated; the “tumour outcome (control, treated, inhibition, significance)” value (Carcinogen: BENZO[A]PYRENE, 50-32-8, Dose [Inhibitor]: 7 UG IN 0.1 ML ACETONE 3/WK ADMINISTERED SIMULTANEOUSLY WITH CARCINOGEN FOR DURATION OF STUDY (STUDY DURATION: 368 D), Route [Inhibitor]: DERMAL, Species: MOUSE, Strain/Sex: ICR/FEMALE, Target Tissue: Type of Lesion: SKIN: SQUAMOUS CARCINOMA, Dose [Carcinogen]: 5 UG IN 0.1 ML ACETONE 3/WK FOR DURATION OF STUDY, Promoter: NONE USED) is listed as 10/50 (20%), 10/50 (20%), 0%, not calculated; the “tumour outcome (control, treated, inhibition, significance)” value (Carcinogen: BENZO[A]PYRENE, 50-32-8, Dose [Inhibitor]: 21 UG IN 0.1 ML ACETONE 3/WK ADMINISTERED SIMULTANEOUSLY WITH CARCINOGEN FOR DURATION OF STUDY (STUDY DURATION: 368 D), Route [Inhibitor]: DERMAL, Species: MOUSE, Strain/Sex: ICR/FEMALE, Target Tissue: Type of Lesion: SKIN: PAPILLOMA, Dose [Carcinogen]: 5 UG IN 0.1 ML ACETONE 3/WK FOR DURATION OF STUDY, Promoter: NONE USED) is listed as 14/50 (28%), 20/50 (40%), -43%, not calculated; the “tumour outcome (control, treated, inhibition, significance)” value (Carcinogen: BENZO[A]PYRENE, 50-32-8, Dose [Inhibitor]: 21 UG IN 0.1 ML ACETONE 3/WK ADMINISTERED SIMULTANEOUSLY WITH CARCINOGEN FOR DURATION OF STUDY (STUDY DURATION: 368 D), Route [Inhibitor]: DERMAL, Species: MOUSE, Strain/Sex: ICR/FEMALE, Target Tissue: Type of Lesion: SKIN: SQUAMOUS CARCINOMA, Dose [Carcinogen]: 5 UG IN 0.1 ML ACETONE 3/WK FOR DURATION OF STUDY, Promoter: NONE USED) is 10/50 (20%), 18/50 (36%), -80%, not calculated.

As for `COc1cc(/C=C/C(=O)OCCc2ccccc2)ccc1O`, the “tumour outcome (control, treated, inhibition, significance)” value by setting is: (Carcinogen: AZOXYMETHANE, 25843-45-2, Dose [Inhibitor]: 0, 750 PPM IN DIET FOR 56 WK BEGINNING 2 WK PRIOR TO CARCINOGEN TREATMENT (STUDY DURATION: 56 WK), Route [Inhibitor]: ORAL, Species: RAT, Strain/Sex: F344/MALE, Target Tissue: Type of Lesion: COLON: ADENOCARCINOMA, Dose [Carcinogen]: 15 MG/KG BW 1/WK FOR 2 WK, Promoter: NONE USED) 81%, 43%, 47%, p<0.002; (Carcinogen: AZOXYMETHANE, 25843-45-2, Dose [Inhibitor]: 0, 750 PPM IN DIET FOR 56 WK BEGINNING 2 WK PRIOR TO CARCINOGEN TREATMENT (STUDY DURATION: 56 WK), Route [Inhibitor]: ORAL, Species: RAT, Strain/Sex: F344/MALE, Target Tissue: Type of Lesion: EAR DUCT: TUMOR, Dose [Carcinogen]: 15 MG/KG BW 1/WK FOR 2 WK, Promoter: NONE USED) 25%, 0%, 100%, p<0.02; (Carcinogen: AZOXYMETHANE, 25843-45-2, Dose [Inhibitor]: 0, 750 PPM IN DIET FOR 56 WK BEGINNING 2 WK PRIOR TO CARCINOGEN TREATMENT (STUDY DURATION: 56 WK), Route [Inhibitor]: ORAL, Species: RAT, Strain/Sex: F344/MALE, Target Tissue: Type of Lesion: SMALL INTESTINE: INVASIVE ADENOCARCINOMA, Dose [Carcinogen]: 15 MG/KG BW 1/WK FOR 2 WK, Promoter: NONE USED) 16%, 10%, 38%, not significant.

As for `O=C1CCCO1`, the “tumour outcome (control, treated, inhibition, significance)” value (Carcinogen: N-METHYL-N'-NITRO-N-NITROSOGUANIDINE, 70-25-7, Dose [Inhibitor]: 0, 200 MG/KG/BW SUSPENSION IN OLIVE OIL 1/2 D BEGINNING POST CARCINOGEN TREATMENT AND CONTINUING FOR DURATION OF STUDY (, Route [Inhibitor]: SUBCUTANEOUS, Species: RAT, Strain/Sex: WISTAR/MALE, Target Tissue: Type of Lesion: STOMACH: ADENOCARCINOMA, Dose [Carcinogen]: 50 UG/ML IN DRINKING WATER FOR 25 WK, Promoter: NONE USED) is on record as 16/20 (80%), 13/20 (65%), 19%, not significant.

As for `CC(C)(c1ccc(O)cc1)c1ccc(O)cc1`, under “Carcinogen: N-NITROSOBIS(2-HYDROXYPROPYL)AMINE, 53609-64-6, Dose [Inhibitor]: 0, 10000 PPM IN DIET FOR 27 WK BEGINNING 9 WK POST CARCINOGEN TREATMENT (STUDY DURATION: 37 WK), Route [Inhibitor]: ORAL, Species: RAT, Strain/Sex: F344/FEMALE, Target Tissue: Type of Lesion: THYROID GLAND: ADENOMA, Dose [Carcinogen]: 2000 MG/KG BW 1 WK POST BILATERAL OVARIECTOMY, Promoter: SULFADIMETHOXINE, 122-11-2”, the outcome was 0/12 (0%), 0/15 (0%), 0%, not significant. The “tumour outcome (control, treated, inhibition, significance)” value (Carcinogen: N-NITROSOBIS(2-HYDROXYPROPYL)AMINE, 53609-64-6, Dose [Inhibitor]: 0, 10000 PPM IN DIET FOR 27 WK BEGINNING 9 WK POST CARCINOGEN TREATMENT (STUDY DURATION: 37 WK), Route [Inhibitor]: ORAL, Species: RAT, Strain/Sex: F344/FEMALE, Target Tissue: Type of Lesion: THYROID GLAND: CARCINOMA, Dose [Carcinogen]: 2000 MG/KG BW 1 WK POST BILATERAL OVARIECTOMY, Promoter: SULFADIMETHOXINE, 122-11-2) is listed as 10/12 (83%), 4/15 (27%), 67%, p<0.01.

On to `C/C(=C\c1ccc2c(c1)C(C)(C)CCC2(C)C)c1ccc(C(=O)O)cc1`, for which the “tumour outcome (control, treated, inhibition, significance)” value was 100%, 93%, 7%, not calculated (Carcinogen: 7,12-DIMETHYLBENZ[A]ANTHRACENE, 57-97-6, Dose [Inhibitor]: 0.17 NMOL IN 0.2 ML ACETONE 1 HR PRIOR TO EACH PROMOTER DOSE FOR 12 WK (STUDY DURATION: 14 WK), Route [Inhibitor]: DERMAL, Species: MOUSE, Strain/Sex: SENCAR/FEMALE, Target Tissue: Type of Lesion: SKIN: PAPILLOMA, Dose [Carcinogen]: 200 NMOL IN 0.2 ML ACETONE ONCE, Promoter: 12-O-TETRADECANOYLPHORBOL-13-ACETATE, 16561-29-8); 94%, 87%, 8%, not calculated (Carcinogen: 7,12-DIMETHYLBENZ[A]ANTHRACENE, 57-97-6, Dose [Inhibitor]: 0.17 NMOL IN 0.2 ML ACETONE 1 HR PRIOR TO EACH PROMOTER DOSE FOR 20 WK (STUDY DURATION: 22 WK), Route [Inhibitor]: DERMAL, Species: MOUSE, Strain/Sex: CD-1/FEMALE, Target Tissue: Type of Lesion: SKIN: PAPILLOMA, Dose [Carcinogen]: 200 NMOL IN 0.2 ML ACETONE ONCE, Promoter: 12-O-TETRADECANOYLPHORBOL-13-ACETATE, 16561-29-8); 100%, 97%, 3%, not calculated (Carcinogen: 7,12-DIMETHYLBENZ[A]ANTHRACENE, 57-97-6, Dose [Inhibitor]: 1.7 NMOL IN 0.2 ML ACETONE 1 HR PRIOR TO EACH PROMOTER DOSE FOR 12 WK (STUDY DURATION: 14 WK), Route [Inhibitor]: DERMAL, Species: MOUSE, Strain/Sex: SENCAR/FEMALE, Target Tissue: Type of Lesion: SKIN: PAPILLOMA, Dose [Carcinogen]: 200 NMOL IN 0.2 ML ACETONE ONCE, Promoter: 12-O-TETRADECANOYLPHORBOL-13-ACETATE, 16561-29-8); 94%, 69%, 27%, not calculated (Carcinogen: 7,12-DIMETHYLBENZ[A]ANTHRACENE, 57-97-6, Dose [Inhibitor]: 1.7 NMOL IN 0.2 ML ACETONE 1 HR PRIOR TO EACH PROMOTER DOSE FOR 20 WK (STUDY DURATION: 22 WK), Route [Inhibitor]: DERMAL, Species: MOUSE, Strain/Sex: CD-1/FEMALE, Target Tissue: Type of Lesion: SKIN: PAPILLOMA, Dose [Carcinogen]: 200 NMOL IN 0.2 ML ACETONE ONCE, Promoter: 12-O-TETRADECANOYLPHORBOL-13-ACETATE, 16561-29-8); 100%, 3%, 97%, not calculated (Carcinogen: 7,12-DIMETHYLBENZ[A]ANTHRACENE, 57-97-6, Dose [Inhibitor]: 17 NMOL IN 0.2 ML ACETONE 1 HR PRIOR TO EACH PROMOTER DOSE FOR 12 WK (STUDY DURATION: 14 WK), Route [Inhibitor]: DERMAL, Species: MOUSE, Strain/Sex: SENCAR/FEMALE, Target Tissue: Type of Lesion: SKIN: PAPILLOMA, Dose [Carcinogen]: 200 NMOL IN 0.2 ML ACETONE ONCE, Promoter: 12-O-TETRADECANOYLPHORBOL-13-ACETATE, 16561-29-8); 94%, 0%, 100%, not calculated (Carcinogen: 7,12-DIMETHYLBENZ[A]ANTHRACENE, 57-97-6, Dose [Inhibitor]: 17 NMOL IN 0.2 ML ACETONE 1 HR PRIOR TO EACH PROMOTER DOSE FOR 20 WK (STUDY DURATION: 22 WK), Route [Inhibitor]: DERMAL, Species: MOUSE, Strain/Sex: CD-1/FEMALE, Target Tissue: Type of Lesion: SKIN: PAPILLOMA, Dose [Carcinogen]: 200 NMOL IN 0.2 ML ACETONE ONCE, Promoter: 12-O-TETRADECANOYLPHORBOL-13-ACETATE, 16561-29-8).
